Experimental data as given in patent US6569878B1, “Substituted 4-amino-thiazol-2-yl compounds as cyclin-dependent kinase inhibitors” (Agouron Pharmaceuticals Inc., priority 1997, dated 2003).

Target: T1, complex of human CDK4 and cyclin D3 (Homo sapiens, UniProt P11802)
T1 construct: made in house; host or cells: insect cells, co-infected with baculovirus
Assay: Inhibition of CDK4/cyclin D retinoblastoma kinase activity (D-type cyclin is D3)
Format: biochemical
Conditions: superscript a: D-type cyclin is D3; apparent Ki; read-out: Ki CDK 4/D
Procedure: Cyclin-dependent kinase activity was measured by quantifying the enzyme-catalyzed, time-dependent incorporation of radioactive phosphate from [^32P]ATP or [^33P]ATP into a protein substrate. […] Reactions were initiated with enzyme, incubated at 30° C., and terminated after 20 minutes by the addition of ethylenediaminetetraacetic acid (EDTA) to 250 mM. […] Radioactivity was quantified by exposing the dried membranes to a phosphorimager.
Apparent Ki values were measured by assaying enzyme activity in the presence of different inhibitor compound concentrations and subtracting the background radioactivity measured in the absence of enzyme. The kinetic parameters (kcat, Km for ATP) were measured for each enzyme under the usual assay conditions by determining the dependence of initial rates on ATP concentration. Inhibition data were fit to an equation for competitive inhibition using Kaleidagraph (Synergy Software), or were fit to an equation for competitive tight-binding inhibition using the software KineTic (BioKin, Ltd.).
Phosphorylated Rb substrate was captured by microfiltration on a nitrocellulose membrane and quantified using a phosphorimager as described above. For measurement of tight-binding inhibitors, the enzyme complex concentration was lowered to 5 nM, and the assay duration was extended to 60 minutes, during which the time-dependence of product formation was linear.

T1 sequence (P11802 whole entry): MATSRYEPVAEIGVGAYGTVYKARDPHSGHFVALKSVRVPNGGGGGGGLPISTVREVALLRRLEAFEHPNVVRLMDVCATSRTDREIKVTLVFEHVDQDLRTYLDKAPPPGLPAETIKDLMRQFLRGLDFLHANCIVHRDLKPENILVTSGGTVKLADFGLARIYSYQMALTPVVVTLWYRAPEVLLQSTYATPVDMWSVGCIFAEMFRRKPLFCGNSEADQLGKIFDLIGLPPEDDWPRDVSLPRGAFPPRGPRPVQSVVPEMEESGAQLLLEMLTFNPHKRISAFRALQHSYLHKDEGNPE
T1 sequence (P30281 whole entry partner): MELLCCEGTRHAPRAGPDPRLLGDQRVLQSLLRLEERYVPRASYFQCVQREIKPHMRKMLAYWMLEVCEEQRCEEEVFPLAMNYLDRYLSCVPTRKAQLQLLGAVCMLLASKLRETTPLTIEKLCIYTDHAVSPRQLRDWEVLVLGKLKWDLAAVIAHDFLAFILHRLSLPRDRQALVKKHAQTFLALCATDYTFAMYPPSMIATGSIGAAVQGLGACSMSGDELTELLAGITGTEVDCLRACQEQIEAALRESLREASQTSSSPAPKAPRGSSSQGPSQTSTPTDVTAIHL

Row | Ki [µM] | Compound
1 | > 5 | COc1ccc(C(=O)c2sc(Nc3ccc(OCc4ccccc4)cc3)nc2N)cc1 [C(2), [4-Amino-2-(4-benzyloxy-phenylamino)-thiazol-5-yl]-(4-methoxy-phenyl)-methanone]
2 | 0.057 | Nc1nc(NC2CCCCC2)sc1C(=O)c1ccccc1[N+](=O)[O-] [C(14), (4-Amino-2-cyclohexylamino-thiazol-5-yl)-(2-nitro-phenyl)-methanone]
3 | 1.02 | COc1ccccc1C(=O)c1sc(NCCc2ccc(Cl)cc2)nc1N [C(27), {4-Amino-2-[2-(4-chloro-phenyl)-ethylamino]-thiazol-5-yl}-(2-methoxy-phenyl)-methanone]
4 | 0.25 | COc1ccc(C(=O)c2sc(Nc3ccc(C)cc3)nc2N)c(OC)c1 [A(13), [4-Amino-2-(p-tolylamino)-thiazol-5-yl]-(2,4-dimethoxyphenyl)-methanone]
5 | 0.51 | Cc1c(C(=O)c2sc(Nc3ccc(N(C)C)cc3)nc2N)sc2ccccc12 [C(7), [4-Amino-2-((4-dimethylaminophenyl)amino)-thiazol-5-yl]-(3-methyl-benzo[b]thiophen-2-yl)-methanone]
6 | > 5 | Nc1ccc(C(=O)c2sc(Nc3ccccc3)nc2N)cc1 [D(2), (4-Amino-phenyl)-(4-amino-2-phenylamino-thiazol-5-yl)-methanone]
7 | 0.33 | COC(=O)c1cccc(Nc2nc(N)c(C(=O)c3ccccc3OC)s2)c1 [C(26), Methyl 3-[4-Amino-5-(2-methoxy-benzoyl)-thiazol-2-ylamino]-benzoate]
8 | 0.067 | N#Cc1cccc(Nc2nc(N)c(C(=O)c3ccccc3[N+](=O)[O-])s2)c1 [C(22)]
9 | 0.52 | Nc1nc(Nc2ccccc2)sc1C(=O)c1ccc(F)cc1 [I(11)]
10 | 1.3 | Nc1nc(Nc2ccc(Sc3ncc(C(F)(F)F)cc3Cl)cc2)sc1C(=O)c1ccccc1[N+](=O)[O-] [C(25), {4-Amino-2-[4-(2-chloro-5-trifluoromethyl-pyridin-2-yl sulfanyl)-phenylamino]-thiazol-5-yl}-(2-nitro-phenyl)-methanone]
11 | 0.13 | Nc1nc(Nc2cccnc2)sc1C(=O)c1ccccc1[N+](=O)[O-] [A(11), [4-Amino-2-(pyridin-3-ylamino)-thiazol-5-yl]-(2-nitro-phenyl)-methanone]
12 | 0.24 | Nc1nc(Nc2cccnc2)sc1C(=O)c1ccc(Cl)cc1Cl [C(28), [4-Amino-2-(pyridin-3-ylamino)-thiazol-5-yl]-(2,4-dichloro-phenyl)-methanone]
13 | 0.18 | Cc1ccc(Nc2nc(N)c(C(=O)c3ccc(C)cc3C)s2)cc1 [A(14), [4-Amino-2-(p-tolylamino)-thiazol-5-yl]-(2,4-dimethylphenyl)-methanone]
14 | 0.057 | CC(C)c1ccc(Nc2nc(N)c(C(=O)c3ccccc3[N+](=O)[O-])s2)cc1 [C(15), [4-Amino-2-(4-isopropyl-phenylamino)-thiazol-5-yl]-(2-nitro-phenyl)-methanone]
15 | 3 | Cc1c(C(=O)c2sc(Nc3ccc(N4CCOCC4)cc3)nc2N)ncn1C [C(77), [4-Amino-2-(4-morpholin-4-yl-phenylamino)-thiazol-5-yl]-(1,5-dimethyl-1H-imidazol-4-yl)-methanone]
16 | 1.17 | Nc1nc(Nc2ccc(S(N)(=O)=O)cc2)sc1C(=O)c1ccc(C(=O)O)cc1 [E(2), 4-[4-Amino-2-(4-sulfamoyl-phenylamino)-thiazole-5-carbonyl]-benzoic Acid]
17 | 1.88 | COc1cc(C(=O)c2sc(Nc3ccccc3)nc2N)cc(OC)c1OC [I(16)]
18 | 0.44 | COC(=O)c1cccc(Nc2nc(N)c(C(=O)c3ccc4ccccc4c3)s2)c1 [I(15)]
19 | 3.84 | COc1ccc(Nc2nc(N)c(C(=O)c3[nH]cnc3C)s2)cc1 [C(40), [4-Amino-2-(4-methoxy-phenylamino)-thiazol-5-yl]-(4-methyl-1H-imidazol-5-yl)-methanone]
20 | 0.315 | Cn1cccc1C(=O)c1sc(Nc2ccc3nc[nH]c3c2)nc1N [C(43), [4-Amino-2-(1H-benzimidazol-5-ylamino)-thiazol-5-yl]-(1-methyl-1H-pyrrol-2-yl)-methanone]
21 | 0.33 | COCCCNc1nc(N)c(C(=O)c2ccccc2[N+](=O)[O-])s1 [C(23), [4-Amino-2-(3-methoxy-propylamino)-thiazol-5-yl]-(2-nitro-phenyl)-methanone]

Row | Ki [µM] | Compound
22 | 0.31 | Nc1nc(Nc2ccc(I)cc2)sc1C(=O)c1ccccc1[N+](=O)[O-] [A(7), [4-Amino-2-(4-iodo-phenylamino)-thiazol-5-yl]-(2-nitro-phenyl)-methanone]
23 | 0.072 | CCN(CC)c1ccc(Nc2nc(N)c(C(=O)c3ccccc3[N+](=O)[O-])s2)cc1 [C(17), [4-Amino-2-(4-diethylamino-phenylamino)-thiazol-5-yl]-(2-nitro-phenyl)-methanone]
24 | 1.4 | Nc1nc(Nc2cccnc2)sc1C(=O)c1ccc2ccccc2c1 [C(30), [4-Amino-2-(pyridin-3-ylamino)-thiazol-5-yl]-naphthalen-2-yl-methanone]
25 | 1.5 | Cc1ccc(Nc2nc(N)c(C(=O)c3ccccc3)s2)cc1 [I(23)]
26 | 0.38 | CN(C)c1ccc(Nc2nc(N)c(C(=O)c3ccccc3N)s2)cc1 [D(3), [4-Amino-2-(4-dimethylamino-phenylamino)-thiazol-5-yl]-(2-amino-phenyl)-methanone]
27 | 0.051 | Nc1nc(Nc2ccc([N+](=O)[O-])cc2)sc1C(=O)c1ccccc1[N+](=O)[O-] [C(13), [4-Amino-2-(4-nitro-phenylamino)-thiazol-5-yl]-(2-nitro-phenyl)-methanone]
28 | 0.8 | Nc1ccc(Nc2nc(N)c(C(=O)c3ccccc3)s2)cc1 [D(4), [4-Amino-2-(4-amino-phenylamino)-thiazol-5-yl]-phenyl-methanone]
29 | ~1.5 | CN(C)c1ccc(Nc2nc(N)c(C(=O)c3ccc(F)cc3)s2)cc1 [I(7)]
30 | 0.68 | Cc1c(C(=O)c2sc(Nc3ccc4nc[nH]c4c3)nc2N)sc2ccc(Cl)cc12 [C(10), [4-Amino-2-(1H-benzoimidazol-6-yl-amino)-thiazol-5-yl]-(5-chloro-3-methyl-benzo[b]thiophen-2-yl)-methanone]
31 | 4.3 | Nc1nc(NC2CCCCC2)sc1C(=O)c1ccc(F)cc1 [I(8)]
32 | 0.13 | Nc1nc(Nc2ccc3c(c2)OCO3)sc1C(=O)c1ccccc1[N+](=O)[O-] [C(11), [4-Amino-2-(benzo[1,3]dioxol-5-yl-amino)-thiazol-5-yl]-(2-nitro-phenyl)-methanone]
33 | 0.357 | COc1ccccc1C(=O)c1sc(Nc2cccnc2)nc1N [C(29), [4-Amino-2-(pyridin-3-ylamino)-thiazol-5-yl]-(2-methoxy-phenyl)-methanone]
34 | 0.74 | Cc1c(C(=O)c2sc(Nc3ccc(N(C)C)cc3)nc2N)sc2ccc(Cl)cc12 [C(9)]
35 | < 1 | COC(=O)c1cccc(C(=O)c2sc(Nc3cccc([N+](=O)[O-])c3)nc2N)c1 [I(17)]
36 | ~0.3 | Nc1nc(Nc2ccccc2)sc1C(=O)c1ccc([N+](=O)[O-])cc1 [A(2), (4-Amino-2-phenylamino-thiazol-5-yl)-(4-nitrophenyl)-methanone]
37 | 2.4 | COC(=O)c1cccc(Nc2nc(N)c(C(=O)c3cccc(OC)c3)s2)c1 [I(13)]
38 | ~0.128 | CC(=O)c1ccc(Nc2nc(N)c(C(=O)c3sccc3C)s2)cc1 [C(44), 1-{4-[4-Amino-5-(3-methyl-thiophene-2-carbonyl)-thiazol-2-ylamino]-phenyl}-ethanone]
39 | 0.17 | Nc1nc(NCCc2ccc(Cl)cc2)sc1C(=O)c1ccccc1[N+](=O)[O-] [C(16), {4-Amino-2-[2-(4-chloro-phenyl)-ethylamino]-thiazol-5-yl}-(2-nitro-phenyl)-methanone]
40 | 12.9 | CCN(CC)c1ccc(Nc2nc(N)c(C(=O)c3ccc([N+](=O)[O-])cc3)s2)cc1 [C(18), [4-Amino-2-(4-diethylamino-phenylamino)-thiazol-5-yl]-(4-nitro-phenyl)-methanone]
41 | 2.5 | Nc1nc(NC2CCCCC2)sc1C(=O)c1ccc([N+](=O)[O-])cc1 [I(9)]
42 | 0.094 | COc1ccccc1C(=O)c1sc(Nc2ccc3nc[nH]c3c2)nc1N [C(32), [4-Amino-2-(1H-benzoimidazol-6-ylamino)-thiazol-5-yl]-(2-methoxy-phenyl)-methanone]

Same assay, conditions: superscript a: D-type cyclin is D3; μM; read-out: Ki CDK 4/D

Row | Ki [µM] | Compound
43 | > 50 | COC(=O)c1cccc(Nc2nc(N)c(C(=O)c3ccc(Br)cc3)s2)c1 [I(14)]
44 | > 30 | COc1ccc(CNc2nc(N)c(C(=O)c3cc(C)sc3C)s2)cc1 [C(68), [4-Amino-2-(4-methoxy-benzylamino)-thiazol-5-yl]-(2,5-dimethylthiophen-3-yl)-methanone]
45 | > 25 | COc1ccc(C(=O)Nc2nc(N)c(C(=O)c3ccccc3[N+](=O)[O-])s2)cc1 [I(18)]
46 | > 10 | CCC(Nc1nc(N)c(C(=O)c2ccc([N+](=O)[O-])cc2)s1)C(=O)OC (stereo in doubt) [C(6), Methyl 2(S)-[4-Amino-5-(4-nitro-benzoyl)-thiazol-2-ylamino]-butyrate]
47 | > 25 | Nc1nc(Nc2ccc([N+](=O)[O-])cc2)sc1C(=O)c1ccccc1 [A(8), [4-Amino-2-(4-nitro-phenylamino)-thiazol-5-yl]-phenyl-methanone]
48 | > 20 | COc1ccc(C(=O)c2sc(Nc3ccccc3)nc2N)cc1 [I(10)]
49 | > 100 | Nc1nc(Nc2ccc(S(N)(=O)=O)cc2)sc1C(=O)c1ccc(OC(=O)c2ccccc2)cc1 [C(39)]
